The test system of assay [1] is H. polygyrus. Description: In vivo efficacy study in H. polygyrus mouse model. Also noted: species or system NMRI mice infected with H. polygyrus. Conditions: for # Mice cured/ # Mice investigated: assessed 1 week after dosing; for Median # of living H. polygyrus worms: median (MAD) of adults collected from intestine; for Live worms in intestine (individual mouse) / Live worms in intestine, Median (+/- MAD): worm burden one week after dose; for Live worms in intestine (individual mouse): Mouse 1-4, 200 mg/kg; for Live worms in intestine, Median (+/- MAD): three to four mice. The method, then: For in vivo testing, female 3-week old NMRI mice were purchased from Charles River, Germany. The mice were kept in individually ventilated cages (IVC) under environmentally controlled conditions (temperature: 22 °C ± 2 °C; relative humidity: 55% ± 15%; artificial lighting with a circadian cycle of 12 h of light) and had free access to water (municipal tap water supply) and rodent food. Rodents were allowed to acclimatize to the new environment for 1 week before infection. Upon 2 days of arrival, dexamethasone (0.25 mg/L) (Sigma-Aldrich, Switzerland) was added to the normal drinking water for immunosuppression to enable parasite establishment. After 1 week, mice were orally infected with 100 H. polygyrus third larval stage (L3) in 150 µL water.
Four benzimidazole derivatives were tested for in vivo efficacy. The administration of dexamethasone was stopped after 12 days post-infection and 2 days later, the selected four benzimidazole derivatives were administered by oral gavage at a single dose of 200 mg/kg to groups of each four mice. Four mice were left untreated and served as a control group. The derivatives were prepared as a Tween80 (Sigma-Aldrich, Switzerland)/ethanol (Merck, Germany) mixture dissolved in tap water (7:3:90, v/v). After 6–7 days post-dosing, the mice were euthanized with CO2 and dissected. Adult worms were removed from the intestine and counted. The worm burden reduction was calculated by comparing the number of worms found in the control animals versus the treated animals.

Assay [2] deals with C. elegans. Description: C. elegans chemical screens of RIKEN NPD libraries at 50 μM (hit identification in KCN survival and development/viability assays). It counts as cell-based, Caenorhabditis elegans. Conditions: screened at 50 μM in triplicate, KCN = KCN survival assay, Dev. & Viability = development/viability assay.
The target in assay [3] is P. pacificus complex I (Pristionchus pacificus, UniProt A0A454XZ18+A0A8R1Z3U8+A4UAP3). Description: In vitro complex I activity assay, P. pacificus mitochondria. It counts as biochemical. The method, then: Mitochondria were isolated from the following free-living nematode strains: C. elegans—N2, CB3474, ECA882, ECA917, ECA1075, ECA1080; C. briggsae—AF16; P. pacificus—PS312; and P. hermaphrodita—B178. With the exception of the P. hermaphrodita strain B178, adult worms of each strain were grown in bulk through liquid culture to obtain mitochondria in sufficient quantities. Due to poor growth in liquid media, mixed stage populations of P. hermaphrodita were washed off and collected from NGM plates seeded with OP50. The isolation of mitochondria from all free-living nematode strains followed the protocol previously outlined in Burns et al.[24]. In brief, a 1 L saturated culture of E. coli HB101 was concentrated 20-fold in 50 mL complete S-medium. ~500,000 L1 worms synchronized from an embryo preparation performed the day prior were added to the S-media/HB101 suspension and grown to adulthood over the course of 3.5 days at 20 °C with shaking at 165 rpm. Following growth, worms were collected in 10 ×15 mL conical tubes and washed 7 times in M9 buffer. Worm suspensions were then combined into a single 15 mL conical tube and diluted to a final volume of 15 mL with M9 buffer. 1 mL aliquots of worm suspension were then distributed to 15 × 1.5 mL screw-cap microcentrifuge tubes and were pelleted at 500 g for 1 min. Excess M9 was aspirated without disturbing the worm pellet. 600 μL ice-cold isolate buffer A (250 mM sucrose, 10 mM Tris (pH 7.5), 1 mM EDTA, 1 mM PMSF (freshly prepared)) and 300 μL cold glass beads were then added to each tube. Tubes were incubated on ice for 10 min, and the worms were then lysed by bead beating (6 x 30 s, with 1 min cooling intervals). Tubes containing worm lysate were centrifuged at 1,000 g for 10 min at 4 °C and the supernatant was transferred to 15 new microcentrifuge tubes on ice. The tubes were centrifuged a second time at 1,000 g for 10 min at 4 °C and the supernatant was once again transferred to 15 new microcentrifuge tubes on ice. These tubes were then centrifuged at 16,000 g for 10 min at 4 °C. The resulting mitochondrial pellet was washed twice by re-suspension in 300 μL of ice-cold isolate buffer B (250 mM sucrose, 10 mM Tris (pH 7.5), 1 mM EDTA). Following the final wash, isolation buffer was aspirated from each tube and the pellets were flash-frozen in ethanol/dry ice and stored at −80 °C until needed.
The enzymatic activities of individual ETC complexes (I-IV) were assessed spectrophotometrically in isolated mitochondria using a Varioskan LUX Multimode plate reader (ThermoFisher Scientific). Mitochondrial pellets previously isolated were thawed on ice and resuspended in ice-cold isolation buffer (250 mM sucrose, 10 mM Tris (pH 7.5), 1 mM EDTA). The BCA assay (Walker, 1994) was used to quantify the protein concentration of mitochondria suspensions; solutions were diluted to a concentration of 0.2 mg/mL for use in all assays. For the complex I assay, mitochondria pellets were freeze-thawed on ice three times to increase enzyme accessibility. […] 20 μL mitochondria suspension was then added/mixed with a pipette to initiate the reaction. Immediately following the addition of mitochondria, absorbance was measured (complex I and II: 600 nm; complex III and IV: 550 nm) in 30 s intervals over 15 min. Enzymatic activity was determined in each reaction by plotting absorbance versus time and calculating the slope of the curve during the initial linear phase of the reaction. […] Percent activity of each complex was calculated by dividing the enzyme-specific activity of each well by the enzyme-specific activity of the corresponding solvent controls.
Chemical solutions were prepared in complex I assay buffer composed of 25 mM KPi buffer (pH 7.5), 3 mg/mL bovine serum albumin (BSA), 80 μM NADH, 60 μM decylubiquinone, 160 μM DCIP, 2 μM antimycin A and 2 mM KCN. […]

[4] abbreviates: single oral dose 200 mg/kg, vs untreated control mice.
The mark [5] stands for this setting: single oral dose of 200 mg/kg, median worm counts versus control mice.

pIC50: −log10 of the molar value. Values joined by “and” are separate entries in the source; they are usually repeats but may differ in a detail not shown here. Equal values may be shown once. Read-outs that look alike come from different tables or passages of the source.

`Clc1ccc(SCCCCn2cnc3ccccc32)cc1` [Compound 7925515]: in assay [1] (single oral dose 200 mg/kg), the “# Mice cured/ # Mice investigated” value is recorded as 0/4 and the “Median # of living H. polygyrus worms” value was 100.0 (8.0). In addition, the “% Worm burden reduction” value in assay [1] (setting [4]) is reported as 19.4%. Also, the “% Worm burden reduction” value in assay [1] (setting [5]) is recorded as 19.3548%. In assay [1] (single oral dose of 200 mg/kg), the “Live worms in intestine (individual mouse)” value is 113 and 100 and 92; the “Live worms in intestine, Median (+/- MAD)” value was 100 (8.0).

In the case of `COc1cc2c(cc1OC)C(c1ccc(-c3ccc(Cl)c(Cl)c3)o1)=NCC2` [NPD3577], the “Hit Type” value in assay [2] ([…]) is listed as “KCN”.

Take `COc1cc2c(cc1OC)C(/C=C/c1ccc(N(C)C)cc1)=NCC2` [NPD6303]: the “Hit Type” value in assay [2] ([…]) is “KCN”.

Regarding `COc1cc2c(cc1OC)C(C(C)c1ccc(CC(C)C)cc1)=NCC2` (stereo not shown) [NPD10504], the “Hit Type” value in assay [2] ([…]) is “KCN”.

The term pIC50 denotes −log10 of the IC50, conventionally taken in molar units. A higher pIC50 goes with a small IC50. Take `Cc1nc2ccccc2n1Cc1ccc(Cl)cc1` [STK697993]: the remaining activity at 0.0001 µM worked out at 94.6% in assay [3] (P. pacificus mitochondria, 0.0001 µM, Mean, read-out: in vitro complex I activity relative to solvent control) and 87.6% in assay [3] (P. pacificus mitochondria, 0.0001 µM, single replicate, read-out: in vitro complex I activity relative to solvent control). Besides, the “in vitro complex I activity relative to solvent control” value in assay [3] (P. pacificus mitochondria, 0.0001 µM, single replicate) is 101.484% and 94.523%; in assay [3] (P. pacificus mitochondria, 0.0005 µM, single replicate), 88.361% and 49.299%; in assay [3] (P. pacificus mitochondria, 0.001 µM, single replicate), 104.362% and 121.410% and 94.602%; in assay [3] (P. pacificus mitochondria, 0.0025 µM, single replicate), 89.591% and 126.458% and 89.566%; in assay [3] (P. pacificus mitochondria, 0.005 µM, single replicate), 89.435% and 110.953% and 89.424%; in assay [3] (P. pacificus mitochondria, 0.013 µM, single replicate) it was 85.370% and 80.753%. Also, the “in vitro complex I activity relative to solvent control” value is 78.182% and 98.911% and 68.184% in assay [3] (P. pacificus mitochondria, 0.025 µM, single replicate); 59.066% and 53.138% in assay [3] (P. pacificus mitochondria, 0.063 µM, single replicate); 35.771% and 33.806% in assay [3] (P. pacificus mitochondria, 0.125 µM, single replicate); 25.713% and 19.065% in assay [3] (P. pacificus mitochondria, 0.313 µM, single replicate); 22.397% and 7.371% and 22.004% in assay [3] (P. pacificus mitochondria, 0.625 µM, single replicate); 23.927% and 2.400% and 29.263% in assay [3] (P. pacificus mitochondria, 1.5 µM, single replicate). The “in vitro complex I activity relative to solvent control” value in assay [3] (P. pacificus mitochondria, 3 µM, single replicate) is 21.335% and 0.000% and 24.340%; in assay [3] (P. pacificus mitochondria, 15 µM, single replicate) it was 11.369% and 0.506% and 10.901%; in assay [3] (P. pacificus mitochondria, 37.5 µM, single replicate), 6.933% and 4.878% and 10.703%; in assay [3] (P. pacificus mitochondria, 75 µM, single replicate), 3.580% and 5.152%. The remaining activity at 0.0005 µM in assay [3] (P. pacificus mitochondria, 0.0005 µM, Mean, read-out: in vitro complex I activity relative to solvent control) stood at 77.4%. Also, in assay [3] (P. pacificus mitochondria, 0.001 µM, Mean, read-out: in vitro complex I activity relative to solvent control), the remaining activity at 0.001 µM is 107%. Further, the remaining activity at 0.0025 µM in assay [3] (P. pacificus mitochondria, 0.0025 µM, Mean, read-out: in vitro complex I activity relative to solvent control) is 102%. The remaining activity at 0.005 µM in assay [3] (P. pacificus mitochondria, 0.005 µM, Mean, read-out: in vitro complex I activity relative to solvent control) was 96.6%. Besides, the remaining activity at 0.013 µM in assay [3] (P. pacificus mitochondria, 0.013 µM, Mean, read-out: in vitro complex I activity relative to solvent control) was found to be 82.8%; in assay [3] (P. pacificus mitochondria, 0.013 µM, single replicate, read-out: in vitro complex I activity relative to solvent control), 82.3%. Besides, the remaining activity at 0.025 µM in assay [3] (P. pacificus mitochondria, 0.025 µM, Mean, read-out: in vitro complex I activity relative to solvent control) was 81.8%. Further, the remaining activity at 0.063 µM in assay [3] (P. pacificus mitochondria, 0.063 µM, Mean, read-out: in vitro complex I activity relative to solvent control) amounted to 55.6%; in assay [3] (P. pacificus mitochondria, 0.063 µM, single replicate, read-out: in vitro complex I activity relative to solvent control), 54.5%. For the same molecule, the remaining activity at 0.125 µM in assay [3] (P. pacificus mitochondria, 0.125 µM, Mean, read-out: in vitro complex I activity relative to solvent control) came out at 36.1%; in assay [3] (P. pacificus mitochondria, 0.125 µM, single replicate, read-out: in vitro complex I activity relative to solvent control), 38.7%. Also, the remaining activity at 0.313 µM in assay [3] (P. pacificus mitochondria, 0.313 µM, Mean, read-out: in vitro complex I activity relative to solvent control) is 20.5%; in assay [3] (P. pacificus mitochondria, 0.313 µM, single replicate, read-out: in vitro complex I activity relative to solvent control), 16.8%. Also, the remaining activity at 0.625 µM in assay [3] (P. pacificus mitochondria, 0.625 µM, Mean, read-out: in vitro complex I activity relative to solvent control) was 17.3%. Also, in assay [3] (P. pacificus mitochondria, 1.5 µM, Mean, read-out: in vitro complex I activity relative to solvent control), the remaining activity at 1.5 µM came to 18.5%. The remaining activity at 3 µM in assay [3] (P. pacificus mitochondria, 3 µM, Mean, read-out: in vitro complex I activity relative to solvent control) was 15.2%. Also, the remaining activity at 15 µM in assay [3] (P. pacificus mitochondria, 15 µM, Mean, read-out: in vitro complex I activity relative to solvent control) stood at 7.59%. In addition, the remaining activity at 37.5 µM in assay [3] (P. pacificus mitochondria, 37.5 µM, Mean, read-out: in vitro complex I activity relative to solvent control) was determined as 7.5%. For the same molecule, the remaining activity at 75 µM in assay [3] (P. pacificus mitochondria, 75 µM, Mean, read-out: in vitro complex I activity relative to solvent control) was determined as 4.35%; in assay [3] (P. pacificus mitochondria, 75 µM, single replicate, read-out: in vitro complex I activity relative to solvent control), 4.33%. In addition, the pIC50 in assay [3] (purified mitochondria) was 7.15.

On to `CCn1c(C(C)c2ccc(CC(C)C)cc2)nc2ccccc21` (stereo not shown) [STK951902], for which, in assay [1] (single oral dose 200 mg/kg), the “# Mice cured/ # Mice investigated” value was 0/4 and the “Median # of living H. polygyrus worms” value is 73.0 (1.5). Further, the “% Worm burden reduction” value in assay [1] (setting [4]) turned out to be 41.1%. For the same molecule, in assay [1] (setting [5]), the “% Worm burden reduction” value stood at 41.1290%. In assay [1] (single oral dose of 200 mg/kg), the “Live worms in intestine (individual mouse)” value is 73 and 52 and 76; the “Live worms in intestine, Median (+/- MAD)” value is recorded as 73 (1.5).

As for `Cc1cc(O)c2c(c1)O[C@@]1(C)CC[C@H]3C(C)(C)CCC[C@]34CO[C@@H]2[C@H]41` [Siccanin], the “Hit Type” value in assay [2] (hit = modified z-score < −3) is reported as “KCN”.

Values taken from publication PMC11079024, “Identification of a family of species-selective complex I inhibitors as potential anthelmintics” (Nature Communications, 2024).
